{"source": "paper PMC5390258", "about": "“CMD-05, a novel promising clinical anti-diabetic drug candidate, in vivo and vitro studies” (Scientific Reports, 2017)", "key": {"[1]": {"molecular_target": "T1, plasma DPP-IV (Rattus norvegicus, UniProt P14740)", "T1 construct": "from tissue; host or cells: plasma of Sprague-Dawley rats", "T1 sequence (P14740 whole entry)": "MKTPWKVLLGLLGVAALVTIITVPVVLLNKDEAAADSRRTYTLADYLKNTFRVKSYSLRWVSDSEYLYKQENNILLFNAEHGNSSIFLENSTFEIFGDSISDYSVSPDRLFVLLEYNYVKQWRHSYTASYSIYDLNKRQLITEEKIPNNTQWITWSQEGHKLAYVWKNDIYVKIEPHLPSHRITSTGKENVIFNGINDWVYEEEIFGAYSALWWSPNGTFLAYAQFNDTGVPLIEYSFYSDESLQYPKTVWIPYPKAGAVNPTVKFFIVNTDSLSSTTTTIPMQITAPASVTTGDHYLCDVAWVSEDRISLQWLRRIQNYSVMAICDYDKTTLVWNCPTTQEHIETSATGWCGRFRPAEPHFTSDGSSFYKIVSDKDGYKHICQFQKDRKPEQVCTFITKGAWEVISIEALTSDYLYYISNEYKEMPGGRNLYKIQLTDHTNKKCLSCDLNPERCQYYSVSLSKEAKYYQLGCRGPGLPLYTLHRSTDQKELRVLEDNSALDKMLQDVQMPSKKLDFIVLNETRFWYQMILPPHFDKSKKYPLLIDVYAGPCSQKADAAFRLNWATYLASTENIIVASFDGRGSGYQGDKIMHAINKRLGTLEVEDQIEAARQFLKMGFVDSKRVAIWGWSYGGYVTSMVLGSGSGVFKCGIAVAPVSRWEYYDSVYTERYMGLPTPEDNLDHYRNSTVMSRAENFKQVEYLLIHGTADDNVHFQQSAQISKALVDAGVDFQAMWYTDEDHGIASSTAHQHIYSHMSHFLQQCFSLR", "experiment": "Plasma DPP-IV activity after single oral dose in fasting normal rats", "type": "in vivo", "conditions": "single oral 4.5 mg/kg", "experimental": "Oral glucose load, fasted and random blood samples was collected to measure DPP-IV activity at the 28th days, the 29th days and the last treatment of the CMD-05. DPP-IV enzyme assay was carried out according to a published method. The enzyme reaction was initiated by adding 5 mM Gly-Pro-AMC as a substrate. After 25 min of incubation, fluorescence of AMC released by the reaction was measured using a spectrofluorometer at an excitation wavelength of 353 nm and emission wavelength of 442 nm.\nBlood samples were collected after administration of CMD-05 (4.5 mg/kg) at 15 min, 30 min, 1 h, 2 h, 4 h, 12 h, and 24 h to measure the DPP-IV activity in fasting normal rats, the concrete steps refer to the preceding."}, "[2]": {"experiment": "Pharmacokinetics in rats", "type": "in vivo, rat", "experimental": "Male SD rats (200–220 g) were fasted overnight to administration of CMD-05 intravenously via tail vein (50 mg/kg, n = 4) or by oral gavage (50 mg/kg, n = 4). Blood samples of 0.3 ml were collected from the orbital venous at 1 min, 3 min, 5 min, 15 min, 30 min, 60 min, 120 min, 240 min, 480 min, 720 min after tail vein injection of CMD-05 and at 15 min, 30 min, 45 min, 60 min, 120 min, 240 min, 480 min, 720 min after oral of CMD-05. Plasma was obtained after centrifugation. The concentrations of CMD-05 in plasma were determined by HPLC method. The pharmacokinetic parameters of CMD-05 in the rats were analyzed by DAS2 software."}, "[3]": {"system": "INS-1 cells", "experiment": "Proliferation of INS-1 cells (CCK-8)", "type": "cell-based, rat", "conditions": "1 × 10^−4 and 3 × 10^−5 M, 24 h, CCK-8, vs DMSO", "experimental": "The rat insulinoma cell line INS-1 (832/13) was obtained from the Department of endocrinology at 1st affiliated hospital of Chongqing medical university. Cells were cultured in RPMI 1640 (Gibco, USA) (11 mmol/l glucose, 100 units/ml penicillin, […] streptomycin, 10 mmol/l HEPES pH 7.4) supplemented with 10% FBS (Gibco, USA), 2 mmol/l L-glutamine, 1 mmol/l pyruvate, and 50 μmol/l β-mercaptoethanol. […] 10 μl of CCK-8 was then added and incubated at 37 °C and 5% CO2 for 1.5 h and […] (OD) was read at 460 nm with microplate reader. The OD value represents the proliferation activity."}, "[4]": {"system": "INS-1 cells", "experiment": "Apoptosis of INS-1 cells induced by STZ (Annexin V/PI flow cytometry)", "type": "cell-based, rat", "conditions": "STZ-induced, 1, 10, 100 μM, 36 h, concentration dependent", "experimental": "The INS cells were seeded into 6-well culture plates at 3 × 10^4 cells per ml and incubated at 37 °C for 24 h. […] After incubated for 36 h, apoptosis was assessed by flow cytometry using the Annexin V-FITC/ propidium iodide (Annexin V/PI) apoptosis detection kit according to the manufacturer’s protocol."}, "[5]": {"system": "pancreatic islets", "experiment": "Morphologic observation on islet of model rats (HE, immunofluorescence, TEM)", "type": "in vivo, rat", "experimental": "HE staining on paraffin section was performed as described in reports. In brief, paraffin section were rinsed with PBS, fixed with 4% paraformaldehyde (PFA) for 30 min and then washed by PBS. The pancreas tissue were stained with Hematoxylin-Eosin, afterwards, they were dehydrated in alcohols. Morphological changes of the pancreas tissue were observed under an optical microscope (Olympus, Japan) after mounted by neutral resins.\nPancreas sections (8 μm) were cut in a cryostat and collected on superfrost microscope slides. The slides were stored at −20 °C till analysis. Immunofluorescent staining was used for detection of insulin (β cells) (1:100, Anti-Insulin antibody, Abcam), glucagon (α cells) (1:200, Anti-glucagon, Abcam). Briefly, the slides were blocked in 5% normal goat serum for 1 h in a humidified chamber. Slides were exposed to primary antibodies at a dilution of […] in antibody diluting solution at 4 °C overnight, washed in PBS, and exposed to appropriate secondary antibodies linked to the fluorescent probes (Goat Anti-Guinea pig IgG/FITC and Alexa Fluor 594-conjugated Goat Anti-Rabbit IgG) (Bioss and Proteintech, China) in antibody diluting solution for 1 h and DAPI (Beyotime, China) for 5 min in the dark. After washed by PBS, slides were mounted with a glycerol mounting medium. Images were collected using a fluorescent microscope (Nikon, Japan).\nFor transmission electron microscopy, about 1 mm^3 tissue specimens were obtained from the same pancreas region of the control and experimental groups of rats, and fixed overnight in 2% glutaraldehyde (pH7.3) in 0.1 M phosphate buffer saline at 4 °C. Images of pancreatic islets were captured from random tissue sections using a transmission electron microscope."}, "[6]": {"system": "NCI-H716 cells", "experiment": "GLP-1 secretion in NCI-H716 cells", "type": "cell-based, human", "conditions": "100 μM, 2 h; solvent group 6.6 ± 0.14 pmol/L", "experimental": "Human enteroendocrine NCI-H716 cells were maintained in suspension culture as described by the American Type Culture Collection guideline (ATCC). Two days before the experiments, cells were seeded into 12-well culture plates coated with Matrigel at 1 × 10^6 cells per well. Cells were incubated in RPMI 1640 containing 10% FBS at 37 °C for 48 h. […] After incubated for 2 h, GLP-1 concentrations from the supernatants were measured by ELISA kits (YuanYe, China)."}, "[7]": {"system": "GLP-1", "experiment": "Plasma GLP-1 levels in model rats (ELISA)", "type": "in vivo, rat", "conditions": "4.5 mg/kg, glucose load and random plasma", "experimental": "To establish model of T2DM, male rats (80–100 g, 9-week-old)[49] were fed high fat diet (HFD) (20% sugar, 10% lard, 10% egg yolk and 60% basal feed) after a week of normal diet. After 4 weeks, rats were injected once with low-dose streptozotocin (Solarbio, China) (STZ, 30 mg/kg i.p) to induce partial insulin deficiency, and then continuously fed HFD for 4 weeks after injection of STZ. Then the model rats were oral administrated drugs for 30 days. The body weights were recorded once a week.\nOral glucose load, fasted and random blood samples were collected from rats on the 28th days, the 29th days and the last of the treatment of drugs, respectively. Plasma levels of insulin and GLP-1 were measured by ELISA kits (YuanYe, China) according to the manufacturer’s recommendation. The levels of HbA1c, Triglycerides (TG), total cholesterol (TC) and low density lipoprotein cholesterol (LDL-C) in blood samples were measured by commercial assay kits (JianCheng, Nanjing, China) according to the manufacturer’s directions."}}, "note": "Where two headings read alike, the source gives them in different places."}
{"smiles": "N#C[C@@H]1CCCN1C(=O)CN(C(=O)CCCCCl)C12CC3CC(CC(O)(C3)C1)C2", "note": "[CMD-05]", "values": [{"measurement": "inhibition at 4.5 mg/kg", "setting": "[1]; rat, at 4 hours after the dose, read-out: maximum inhibition of plasma DPP-IV activity", "value": "~90", "unit": "%"}, {"measurement": "duration of plasma DPP-IV inhibition greater than 50%", "setting": "[1]", "value": "at least 15 hours"}, {"measurement": "time of maximum inhibition of plasma DPP-IV activity", "setting": "[1]", "value": 4, "unit": "h"}, {"measurement": "effect of food on pharmacokinetics", "setting": "[2]; healthy rats", "value": "not affected by food"}, {"measurement": "half-life", "setting": "[2]; male, SD, rat, plasma, oral, 50 mg/kg, rats, 50 mg/kg, read-out: half-life", "value": 4.8, "unit": "h"}, {"measurement": "Tmax", "setting": "[2]; male, SD, rat, plasma, po, 50 mg/kg, rats, single oral 50 mg/kg, read-out: time to peak plasma concentration (converted)", "value": 0.5, "unit": "h"}, {"measurement": "bioavailability", "setting": "[2]; male, SD, rat, plasma, rats, 50 mg/kg oral vs intravenous, read-out: absolute bioavailability", "value": 84.5, "unit": "%"}, {"measurement": "half-life", "setting": "[2]; rats, 50 mg/kg", "value": "4.798 ± 0.437", "unit": "h"}, {"measurement": "time to peak plasma concentration", "setting": "[2]; rats, single oral 50 mg/kg, 50 mg/kg", "value": "30 to 45", "unit": "min"}, {"measurement": "cells viabilities (proliferation) of INS-1 cells", "setting": "[3]", "value": "increased"}, {"measurement": "apoptosis of INS-1 cells", "setting": "[4]", "value": "reduce of apoptosis"}, {"measurement": "distribution of β cells (insulin/glucagon double staining)", "setting": "[5]; 30 days treatment", "value": "obviously improved"}, {"measurement": "mass of α-cells (insulin/glucagon double staining)", "setting": "[5]; 30 days treatment", "value": "mildly reduced"}, {"measurement": "morphology of pancreatic islets (HE staining)", "setting": "[5]; 30 days treatment", "value": "prevent islet from damage"}, {"measurement": "secretory granules in β cells (transmission electron microscopy)", "setting": "[5]; compared with the model", "value": "obviously increased"}, {"measurement": "GLP-1 secretion", "setting": "[6]", "value": "7.5 ± 0.44", "unit": "pmol/L"}, {"measurement": "levels of GLP-1 in plasma", "setting": "[7]", "value": "significantly increased"}]}
